# “Also recorded” adds a separate entry of the source.
# Tests used:
# PDE IX = molecular target: T1, PDE IX (UniProt O70628); conditions: read-out: IC50, PDE IX; cited from earlier work
# T1 sequence (O70628 1-534): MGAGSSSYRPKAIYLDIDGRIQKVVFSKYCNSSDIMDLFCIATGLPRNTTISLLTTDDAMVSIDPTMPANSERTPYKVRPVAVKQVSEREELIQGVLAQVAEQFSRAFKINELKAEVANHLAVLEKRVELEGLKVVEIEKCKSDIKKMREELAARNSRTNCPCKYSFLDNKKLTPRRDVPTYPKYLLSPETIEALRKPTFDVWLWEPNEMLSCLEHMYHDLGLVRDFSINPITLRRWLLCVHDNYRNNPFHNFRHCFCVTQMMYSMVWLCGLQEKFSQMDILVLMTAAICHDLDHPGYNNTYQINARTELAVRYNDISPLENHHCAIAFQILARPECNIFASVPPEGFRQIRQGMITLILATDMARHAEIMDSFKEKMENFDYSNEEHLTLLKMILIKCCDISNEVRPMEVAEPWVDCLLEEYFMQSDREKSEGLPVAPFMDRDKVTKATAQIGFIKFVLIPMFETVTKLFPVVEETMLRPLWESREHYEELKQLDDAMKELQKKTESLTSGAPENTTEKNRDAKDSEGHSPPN
# PDE II = molecular target: T2, PDE II (Homo sapiens, UniProt O00408); conditions: read-out: IC50, PDE II; cited from earlier work
# T2 construct: host or cells: heterologously expressed human PDE; human heart
# T2 sequence (O00408 whole entry): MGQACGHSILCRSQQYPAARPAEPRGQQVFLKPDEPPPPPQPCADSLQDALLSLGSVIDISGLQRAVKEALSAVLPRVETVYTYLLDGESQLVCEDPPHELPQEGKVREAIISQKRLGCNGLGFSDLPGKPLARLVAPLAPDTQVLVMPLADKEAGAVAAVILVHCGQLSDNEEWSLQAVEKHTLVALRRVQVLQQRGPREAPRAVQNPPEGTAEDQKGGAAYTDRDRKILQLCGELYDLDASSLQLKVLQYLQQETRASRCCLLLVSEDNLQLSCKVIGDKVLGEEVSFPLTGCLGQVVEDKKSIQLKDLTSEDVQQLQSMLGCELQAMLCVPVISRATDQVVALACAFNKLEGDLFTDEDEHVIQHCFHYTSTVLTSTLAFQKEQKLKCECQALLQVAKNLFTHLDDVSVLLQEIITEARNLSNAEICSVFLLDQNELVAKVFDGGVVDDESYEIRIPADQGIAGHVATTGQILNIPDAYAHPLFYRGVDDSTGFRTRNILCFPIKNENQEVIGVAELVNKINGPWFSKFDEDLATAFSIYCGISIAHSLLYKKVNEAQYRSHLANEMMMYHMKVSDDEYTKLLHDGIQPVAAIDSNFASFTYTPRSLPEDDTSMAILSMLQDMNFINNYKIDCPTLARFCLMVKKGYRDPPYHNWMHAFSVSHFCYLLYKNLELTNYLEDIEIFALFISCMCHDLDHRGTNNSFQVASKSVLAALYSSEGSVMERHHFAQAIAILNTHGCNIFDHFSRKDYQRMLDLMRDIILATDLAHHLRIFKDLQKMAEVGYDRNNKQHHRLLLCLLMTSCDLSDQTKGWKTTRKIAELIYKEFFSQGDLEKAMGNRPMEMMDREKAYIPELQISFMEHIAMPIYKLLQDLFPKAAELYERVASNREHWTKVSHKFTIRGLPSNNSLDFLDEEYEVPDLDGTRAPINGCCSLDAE
# PDE VIII = molecular target: T3, PDE VIII (Mus musculus, UniProt O88502); conditions: cited from earlier work
# T3 construct: host or cells: heterologously expressed
# T3 sequence (O88502 1-823): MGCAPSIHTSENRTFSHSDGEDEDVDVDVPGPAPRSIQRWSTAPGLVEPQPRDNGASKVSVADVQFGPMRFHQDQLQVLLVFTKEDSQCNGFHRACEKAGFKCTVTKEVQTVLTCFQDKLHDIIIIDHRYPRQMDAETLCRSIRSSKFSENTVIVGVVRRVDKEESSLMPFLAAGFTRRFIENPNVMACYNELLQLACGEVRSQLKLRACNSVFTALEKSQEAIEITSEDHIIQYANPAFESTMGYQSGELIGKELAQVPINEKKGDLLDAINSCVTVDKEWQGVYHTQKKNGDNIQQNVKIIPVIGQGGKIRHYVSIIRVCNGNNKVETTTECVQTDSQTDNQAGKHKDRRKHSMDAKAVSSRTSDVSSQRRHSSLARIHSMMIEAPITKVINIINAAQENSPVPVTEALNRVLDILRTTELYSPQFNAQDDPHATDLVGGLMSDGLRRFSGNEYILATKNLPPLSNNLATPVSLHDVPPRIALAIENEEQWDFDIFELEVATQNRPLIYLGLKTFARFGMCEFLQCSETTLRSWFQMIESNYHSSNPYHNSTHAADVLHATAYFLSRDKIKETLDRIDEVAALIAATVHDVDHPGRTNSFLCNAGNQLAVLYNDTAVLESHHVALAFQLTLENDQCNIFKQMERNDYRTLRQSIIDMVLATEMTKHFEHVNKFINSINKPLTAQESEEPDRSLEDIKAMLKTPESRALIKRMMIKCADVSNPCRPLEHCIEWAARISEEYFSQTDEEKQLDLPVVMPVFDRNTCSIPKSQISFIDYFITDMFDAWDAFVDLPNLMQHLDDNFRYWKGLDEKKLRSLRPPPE
# [1] = test system: PDE activity in HEK-293 cells; test: Effect and in vivo KI of PDE inhibitors on forskolin-induced Ca2+ influx through CNG channels; conditions: for effect on forskolin-induced Ca2+ influx: 1 μM forskolin, IBMX 10 or 100 μM, RO-20-1724 10 μM; for time to complete equilibration across the plasma membrane of HEK-293 cells: human, pH 7.4
# Experimental: Next, experiments were conducted to pharmacologically identify the PDE type(s) that regulates cAMP levels near CNG channels. The C460W/E583M channels were used to monitor forskolin-stimulated cAMP accumulation in the presence and absence of a series of PDE inhibitors. […] In these experiments, inhibitor concentrations were used at which specific PDE types should be inhibited.
# This required developing a quantitative framework to assess the relationship between cAMP synthesis, hydrolysis, and redistribution throughout the cell. Thus, the following formalism was adopted:
# [formula] where C is the steady-state rate of cAMP synthesis by AC, Vmax is the maximal rate of cAMP hydrolysis, Km is the Michaelis constant for PDE, and kf is the rate constant of cAMP flux out of the microdomain. In order to estimate KI for the PDE inhibitors two assumptions were made. First, it was assumed that at low levels of AC stimulation and PDE inhibition, the concentration of local cAMP is low and diffusion of cAMP out of the microdomain is negligible. Second, the assumption was made that cAMP levels reach steady-state shortly after AC stimulation (i.e., equal rates of synthesis and hydrolysis). With these assumptions, Eq. 4 can be simplified to:
# [formula] […] At low cAMP concentrations (<K1/2 for the channel), the cAMP concentration is proportional to the square root of the Ca^2+ influx rate (the Hill coefficient for channel activation is approximately 2). Thus, KI, can be estimated using a linear fit to the square root of the slopes of the fluorescence traces as a function of inhibitor concentration (See, FIG. 11).
# Increases in local cAMP concentration activate CNG channels and trigger Ca^2+ entry. Ca^2+ influx was monitored in cell populations using the fluorescent indicator fura-2.
# Additions were made by pipetting stock solutions into a stirred cuvette. The solutions were then assayed using an LS-50B spectrofluorimeter (Perkin Elmer). […]
# Fluorescence was measured at an excitation wavelength of 380 nm and an emission wavelength of 510 nm. […] The MATLAB software package (MathWorks) was used for curve fitting and simulations.
# The C460W/E583M channels were used to monitor forskolin-stimulated cAMP accumulation in the presence and absence of a series of PDE inhibitors. […] In these experiments, inhibitor concentrations were used at which specific PDE types should be inhibited.
# [formula] where C is the steady-state rate of cAMP synthesis by AC, Vmax is the maximal rate of cAMP hydrolysis, Km is the Michaelis constant for PDE, and kf is the rate constant of cAMP flux out of the microdomain. In order to estimate KI for the PDE inhibitors, two assumptions were made.
# PDE I = conditions: cited from earlier work
# [2] = C460W/E583M channels, 0.5 μM forskolin, n=4
# [3] = FIG. 11, the experiments shown, C460W/E583M channels, 0.5 μM forskolin
Structure (SMILES),IC50 (PDE IX) [µM],IC50 (PDE II) [µM],IC50 (PDE VIII) [µM],"Ki [1, 2] [µM]",effect on forskolin-induced Ca2+ influx ([1]; C460W/E583M channels),"Ki [1, 3] [µM]",time to complete equilibration across the plasma membrane of HEK-293 cells [1] [s],IC50 (PDE I) [µM],"Ki ([1]; Δ61-90/C460W/E583M channels, n=3) [µM]","slope of ΔF/F0 ([1]; 50 nM rolipram at 0 s, 0.5 μM forskolin at 180 s, C460W/E583M channels) [s⁻¹]"
CCCCCC[C@@H]([C@@H](C)O)n1cnc2c(N)ncnc21 (racemic) [EHNA],> 100,0.5 to 1,> 100,–,–,–,–,–,–,–
"CC(C)Cn1c(=O)n(C)c(=O)c2[nH]cnc21 [IBMX, 3-isobutyl-1-methylxanthine]",> 200,20 to 50,> 200,11 ± 2,significant forskolin-induced Ca^2+ influx was observed; also recorded: influenced the time course of forskolin-induced Ca^2+ influx,10,< 180,2 to 3,–,–
"CCCCOc1cc(CC2CNC(=O)N2)ccc1OC (stereo not drawn) [RO-20-1724, 4-(3-butoxy-4-methoxybenzyl)-2-imidazolidinone]",–,> 100,> 200,0.13 ± 0.02,significant forskolin-induced Ca^2+ influx was observed; also recorded: influenced the time course of forskolin-induced Ca^2+ influx,0.14,< 180,200,0.15 ± 0.02,–
COc1ccc(C2CNC(=O)C2)cc1OC1CCCC1 (stereo not drawn) [Rolipram],> 200,> 100,> 200,0.07 ± 0.02,significantly increased the forskolin-induced Ca^2+ influx,0.09,–,> 150,–,0.00062

# — patent US7341836B2, “Modified cyclic nucleotide gated ion channels” (The Regents of the University of Colorado, priority 2001, dated 2008)
